Assay [1] has as its system PDAC cells. Put plainly: Trogocytosis of CAF membranes by PDAC cells with cytoskeleton inhibitors. Format: cell-based. The note with it: cytoskeleton (actin polymerization) inhibitors. The procedure:
(§1) To label cellular membranes, pairs of lipophilic fluorescent dyes were used according to the manufacturer's instructions in the following combinations: 1) adherent CAFs were stained with 1 μM PKH67 (Sigma-Aldrich), Panc-1 were stained in suspension with 10 μM CellTracker™ orange CMCMR (Thermo Fisher Scientific); 2) CAFs labeled with 0.5 μM BODIPY-cholesterol (Topfluor Cholesterol, #DO-016545, Avanti Polar Lipids) dissolved in 0.1 mM methyl-beta-cyclodextrin (#C4555, Sigma) with 2 μM cholesterol (#C8667, Sigma-Aldrich) in MEM media at 37° C. for 30 min in suspension; murine or human (Panc-1) PDAC cells were stained in suspension with CPD670 (#65-0840-85, Thermo Fisher Scientific). After labeling, CAFs were co-incubated for the indicated time intervals with PDAC cells in 12-well culture plates at ratio of 2:1 in 0.5% DMEM media. Co-cultures of CAFs and PDAC cells for 3 minutes on ice minutes were used as negative controls. In experiments assessing the effect of extracellular calcium on trogocytosis, cells were co-cultured in Phosphate Buffered Saline (PBS) containing calcium and magnesium (D8662, Sigma-Aldrich) or in PBS without calcium and magnesium (D8537, Sigma-Aldrich). After co-cultures, cells were collected and pelleted by centrifugation (5 min, 1500 rpm), resuspended in 10% formalin (Sigma) for 10 min at RT, washed and re-suspended in PBS/1% BSA. Trogocytosis was measured as the acquisition of CAF-specific fluorescence in PDAC cells by flow cytometry on MACSQuant® VYB Flow Cytometer (Miltenyi Biotec) or FACScan analyzer (BD Biosciences). Analysis of dual staining was done using FlowJo software (10.8.1, BD Biosciences). Live cells were gated based on FSC/SSC parameters, then single cells were gated based on SSC-A/SSC-H.

In assay [2] the test system is Panc-1 cells. Put plainly: Trogocytosis of PKH67-labeled CAF membranes by Panc-1 cells in co-culture (flow cytometry). Format: cell-based, human. The conditions noted are these: 3 mM EGTA, mean fluorescence intensity normalized to vehicle. Here is the method: as §1, with “After co-cultures, cells were collected and pelleted by centrifugation (5 min, 1500 rpm), resuspended in 10% formalin (Sigma) for 10 min at RT, washed and re-suspended in PBS/1% BSA.” left out, “Analysis of dual staining was done using FlowJo software (10.8.1, BD Biosciences). Live cells were gated based on FSC/SSC parameters, then single cells were gated based on SSC-A/SSC-H.” left out
For orientation: In flow cytometry, cells or beads pass a laser one at a time.

Assay [3] concerns the target T1, ANO6 (Homo sapiens, UniProt Q4KMQ2).
T1 sequence (Q4KMQ2 1-910): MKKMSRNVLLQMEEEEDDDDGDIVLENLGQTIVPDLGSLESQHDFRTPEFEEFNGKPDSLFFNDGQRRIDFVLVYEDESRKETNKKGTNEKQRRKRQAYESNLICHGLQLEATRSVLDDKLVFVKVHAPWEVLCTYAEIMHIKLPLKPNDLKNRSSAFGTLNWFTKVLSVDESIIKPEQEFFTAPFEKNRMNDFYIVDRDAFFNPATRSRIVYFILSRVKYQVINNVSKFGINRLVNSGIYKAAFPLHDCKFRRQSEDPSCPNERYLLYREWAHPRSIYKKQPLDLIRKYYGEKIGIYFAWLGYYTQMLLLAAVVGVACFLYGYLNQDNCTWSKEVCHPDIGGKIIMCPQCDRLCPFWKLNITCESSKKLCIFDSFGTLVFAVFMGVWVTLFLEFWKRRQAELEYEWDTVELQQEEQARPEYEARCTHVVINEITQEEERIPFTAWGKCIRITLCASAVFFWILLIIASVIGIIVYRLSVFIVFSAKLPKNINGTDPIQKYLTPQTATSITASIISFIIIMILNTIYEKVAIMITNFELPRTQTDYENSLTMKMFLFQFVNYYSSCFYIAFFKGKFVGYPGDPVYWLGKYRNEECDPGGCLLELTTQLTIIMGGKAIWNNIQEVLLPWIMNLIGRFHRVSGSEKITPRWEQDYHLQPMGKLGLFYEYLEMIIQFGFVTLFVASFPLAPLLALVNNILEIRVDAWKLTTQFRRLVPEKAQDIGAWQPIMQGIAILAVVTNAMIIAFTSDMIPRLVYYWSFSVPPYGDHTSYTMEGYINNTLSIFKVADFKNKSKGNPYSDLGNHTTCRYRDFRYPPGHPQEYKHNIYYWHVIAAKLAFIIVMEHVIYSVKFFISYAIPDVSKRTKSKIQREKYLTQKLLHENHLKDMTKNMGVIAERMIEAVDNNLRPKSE
Briefly: Phosphatidylserine externalization assay in CAFs pulsed with ionomycin (annexin XII). It counts as cell-based. Further details: endogenous in cells; host or cells: human patient-derived, hTERT-immortalized pancreatic cancer-associated fibroblasts (CAFs). Here is the method: (§2) CAFs were seeded in 24-well glass bottom plates (cat. #81156, Ibidi, Fitchburg, WI) at a density of 20,000 cells per well. Cells were then treated with niclosamide (1 μM) for 2 h. After one wash with FBS-free media at RT, cells were incubated with 250 μl of 1:100 annexin XII and 1:200 propidium iodide (pSIVA Abcam #ab129817), with or without 10 μM ionomycin. Cells were then incubated (5 min 37C) and imaged by fluorescence microscopy using a Nikon A1 camera (Nikon) linked to a Nikon Eclipse Ti2-E Inverted Microscope Imaging System (Nikon) for each channel. Fifteen images per well were acquired.

The target of assay [4] is T1, ANO6. Briefly: PtdSer externalization (annexin XII) in CAFs co-cultured with DsRed-tagged Panc-1 cells. Format: cell-based. Also on record: this increase was observed only in control CAFs (ANO6-proficient) engaged in physical contacts with DsRed-tagged Panc-1 cells; endogenous in cells; host or cells: human CAFs in co-culture with DsRed-tagged Panc-1 cells. The conditions noted are these: BTP2 10 μM; clofazimine 1 μM; niclosamide. The procedure:
as §2

Assay [5] deals with store-operated calcium entry (SOCE) in CAFs. Briefly: Cytosolic calcium (Fluo4) in CAFs co-cultured with Panc-1 cells. It counts as cell-based, human. The conditions noted are these: indicated concentrations of inhibitors, Fluo4 measured 5 minutes after addition. The procedure: CAF (5×10^3) and PDAC ([…]) cells were incubated (separately or in co-culture) on coverslips for 12 hrs before loading with the calcium indicator Fluo4-AM (5 μM; Invitrogen, Eugene, OR) in DMEM supplemented with HEPES and 0.5% FBS and incubated at 37° C., 5% CO2 for 30 min. Cells were washed in DMEM before incubating for an additional 30 minutes at 37° C., 5% CO2 to permit de-esterification of the dye. Fluorescence emissions at 506 nm in response to excitation at 494 nm were monitored for 60 cycles at a frequency of 0.33 Hz using a Leica SP8 laser scanning microscope (Buffalo Grove, IL) at 37° C. with 5% CO2. Intracellular Ca2+measurements are shown as absolute fluorescence obtained from 35-45 cells obtained using Leica LASX software. Averaged results±SEM from at least three independent experiments were analyzed by one-way ANOVA with GraphPad Prism. […]
CAF (5×10^3) cells were incubated on coverslips for 12 hrs before loading with the calcium indicator Fura2-AM (2 μM; Invitrogen, Eugene, OR) in cation-safe solution (107 mM NaCl, 7.2 mM KCl, 1.2 mM MgCl2, 11.5 mM glucose, 20 mM Hepes-NaOH, 1 mM CaCl2, pH 7.2) for 30 min at 24° C. as previously described. Cells were washed, and dye was allowed to de-esterify for a minimum of 30 min at 24° C. Cells were treated with Vehicle control, […] CM462, or 1 μM BTP2 along with 2 μM Thapsigargin for 10 minutes. After Ca2+ levels returned to their baseline, 1 mM Ca2+ was added. Ca2+ measurements were made using a Leica DMI 6000B fluorescence microscope controlled by Slidebook Software (Intelligent Imaging Innovations; Denver, CO). Fluorescence emission at 505 nm was monitored while alternating between 340 and 380 nm excitation wavelengths at a frequency of 0.67 Hz; intracellular Ca2+ measurements are shown as 340/380 nm ratios obtained from groups (20-25) of single cells.

The subject of assay [6] is OT-1 CTLs. Put plainly: Trogocytosis assay of DiD-labeled CAFs co-cultured with OT-1 CTLs. It counts as cell-based, mouse. Here is the method:
For trogocytosis between OT-1 and CAF cells, T cells were isolated from splenocytes of OTI mice (strain 021880, The Jackson Laboratory) and stimulated with OVA257-264 (1 μg/ml) for 24 hours as described.
Cholesterol abundance in cell membranes was determined with Cholesterol Detection Assay Kit (Cayman, cat #10009779). Dissociated cells were fixed with fixative solution for 10 minutes, washed and labeled with Filipin III as per the manufacturer's instructions. Labeling with Filipin III was done by incubating in the dark for 30 minutes. After two washes for 5 minutes each, labeling was analyzed by flow cytometry (excitation: 340-380, emission: 385-470). The IFN-γ, Granzyme B and Foxp3 were detected using Foxp3/Transcription Factor Staining Buffer (00-5523-00, Thermo Fisher Scientific). Cells were stained for cell surface markers at 4° C. for 30 min followed by fixation and permeabilization buffer for 30 mins and two washes with permeabilization buffer and incubation with the indicated antibodies for 30 mins, washed with PBS twice followed by flow cytometry analysis.

In assay [7] the test system is KPCN349 cells. Put plainly: Trogocytosis of BODIPY-cholesterol labeled CAF membranes by KPCN349 cells with PtdSer masking. Format: cell-based, murine. The conditions noted are these: 100 nM Annexin-V or 100 nM Zn-DPA; CAFs pre-treated 2 h, maintained in co-culture. Here is the method:
as §1, with “After co-cultures, cells were collected and pelleted by centrifugation (5 min, 1500 rpm), resuspended in 10% formalin (Sigma) for 10 min at RT, washed and re-suspended in PBS/1% BSA.” left out, “Analysis of dual staining was done using FlowJo software (10.8.1, BD Biosciences). Live cells were gated based on FSC/SSC parameters, then single cells were gated based on SSC-A/SSC-H.” left out

Entries after “also recorded” stand apart in the source; their conditions may differ.

Take `C/C1=C/C(=O)O[C@@H]2C[C@@H](CC[C@H](C)/C=C\CC1)O[C@@](O)([C@@H]1CSC(=O)N1)C2` [Latrunculin B]: in assay [1], the “Uptake of CAF PMs by PDAC cells” value is “suppressed uptake of CAF PMs”.

Take lantrinculin A: the “Uptake of CAF PMs by PDAC cells” value in assay [1] is listed as “partially suppressed”.

With `C=C1[C@@H](C)[C@H]2[C@H](Cc3ccccc3)NC(=O)[C@]23[C@H](OC(C)=O)/C=C/[C@@](C)(O)C(=O)[C@@H](C)C/C=C/[C@H]3[C@@H]1O` [Cytochalasin D], the “Uptake of CAF PMs by PDAC cells” value in assay [1] was “suppressed uptake of CAF PMs”; in assay [1] (listed as cytochalasin D), “partially suppressed”.

Take `O=C(N/N=C/c1ccc(O)c(O)c1)c1cc2ccccc2cc1O` [Dynasore]: in assay [2] (listed as dynasore), the “Trogocytosis of CAF membranes / uptake of membrane lipids from human CAFs by Panc-1 cells” value is “did not affect the uptake”.

As for `O=C(O)CN(CCOCCOCCN(CC(=O)O)CC(=O)O)CC(=O)O` [EGTA], the “Trogocytosis of CAF membranes / uptake of membrane lipids from human CAFs by Panc-1 cells” value in assay [2] is “inhibited”. Moreover, the “PtdSer externalization in CAFs with extracellular calcium chelator” value in assay [3] (1 μM ionomycin 5 minutes, 2 mM EGTA, annexin XII) is “blocked”.

Turning to `C[C@H](CCC(=O)O)C[C@H](C)C[C@H](C)C(=O)/C=C(\O)[C@H](C)C[C@H](C)C/C=C/[C@@H](C)[C@@H](O)[C@@H](C)[C@@H](O)C[C@@H]1CC[C@@](C)([C@H]2CC[C@@](C)([C@@H](C)O)O2)O1` [ionomycin], in assay [3] (calcium ionophore treatment), the “Cytoplasmic calcium in control CAFs” value is given as “increased cytoplasmic calcium” and the “PtdSer externalization to the PM in control CAFs” value is on record as “led these cells to externalize PtdSer”.

On to `Cc1nnsc1C(=O)Nc1ccc(-n2nc(C(F)(F)F)cc2C(F)(F)F)cc1` [BTP2], for which, in assay [4], the “PtdSer externalization (annexin XII) in CAFs co-cultured with Panc-1 cells” value is given as “suppressed PtdSer externalization; also recorded: blocked”. In addition, the “Cytosolic Ca2+ elevation (Fluo4 signal) in CAFs engaged in cell-cell contacts with PDAC (Panc-1) cells” value (from here on “Cytosolic Ca2+ elevation (Fluo4 signal)”) in assay [5] is given as “effectively blocked cytosolic Ca2+ elevation; also recorded: abrogated Fluo4 fluorescent signal”.

Take `C[C@H](CCCC(C)(C)O)[C@H]1CC[C@H]2[C@@H]3CC=C4C[C@@H](O)CC[C@]4(C)[C@H]3CC[C@]12C` [25-hydroxycholesterol]: the “Ability of CAFs to inhibit IFN-γ production by the CTLs” value in assay [6] (12 h co-culture with CAFs) is on record as “reduced the ability of CAFs to inhibit IFN-γ production”. Moreover, the “Transfer of DiD (CAF PM uptake) from CAFs to OT-1 CTLs” value in assay [6] (12 h co-culture, niclosamide 1 μM, clofazimine 1 μM, anti-TIM3 Ab 4 μg/ml, 25-hydroxycholesterol 4 μM) is given as “effectively inhibited the transfer of DiD”.

Take bis-Zn-dipicolylamine [Zn-DPA]: the “Uptake of BODIPY-labeled CAF membranes by KPCN349 cells” value in assay [7] is “significantly reduced uptake; also recorded: antagonizes trogocytosis”.

In the case of `Cc1cccc(F)c1C(=O)Nc1cnc(-c2cc3c(cc2Cl)OC(F)(F)O3)cn1` [zegocractin], the “Cytosolic Ca2+ elevation (Fluo4 signal)” value in assay [5] is listed as “abrogated Fluo4 fluorescent signal”; in assay [5] (listed as zegocratin), “effectively blocked cytosolic Ca2+ elevation”.

As for `COc1ccc2c(c1)CC[C@@H]1[C@@H]2CC[C@]2(C)[C@@H](NCCCCCCN3C(=O)C=CC3=O)CC[C@@H]12` [U73122], the “Cytosolic Ca2+ elevation (Fluo4 signal)” value in assay [5] is “no effect on Fluo4 signal”.

These data come from patent US20250312336A1, “Compositions And Methods For Treating Cancer With Calcium Channel Inhibitors” (Institute for Cancer Research d/b/a The Research Institute …, priority 2024, published 2025).
